According to the CheMixHub viscosity set:

Assay: xn = mol fraction of the nth substance listed

c1ccccc1 + CN(C)C=O
298.15 K
Conditions	viscosity [mPa·s]
101 kPa, x1 = 0.0257	0.799
101 kPa, x1 = 0.0509	0.795
101 kPa, x1 = 0.1031	0.783
101 kPa, x1 = 0.1578	0.765
101 kPa, x1 = 0.2083	0.759
101 kPa, x1 = 0.2579	0.75
101 kPa, x1 = 0.3129	0.7455
101 kPa, x1 = 0.3651	0.739
101 kPa, x1 = 0.4202	0.725
101 kPa, x1 = 0.469	0.711
101 kPa, x1 = 0.5167	0.7175
101 kPa, x1 = 0.5779	0.7
101 kPa, x1 = 0.6247	0.697
101 kPa, x1 = 0.6758	0.6825
101 kPa, x1 = 0.7167	0.671
101 kPa, x1 = 0.7855	0.653
101 kPa, x1 = 0.8262	0.643
101 kPa, x1 = 0.8944	0.6255
101 kPa, x1 = 0.9372	0.615
101 kPa, x1 = 0.9409	0.614
101 kPa, x1 = 0.9761	0.605
101.33 kPa, x1 = 0.1225	0.7645
101.33 kPa, x1 = 0.2494	0.7375
101.33 kPa, x1 = 0.4823	0.6925
101.33 kPa, x1 = 0.6236	0.6672
101.33 kPa, x1 = 0.7499	0.6477
101.33 kPa, x1 = 0.8733	0.6245

ClC(Cl)=C(Cl)Cl + CC(C)O
Conditions	viscosity [mPa·s]
298.15 K, 101.3 kPa, x1 = 0.0763	1.855
298.15 K, 101.3 kPa, x1 = 0.6349	1.025
303.15 K, 101.33 kPa, x1 = 0.1028	1.473
303.15 K, 101.33 kPa, x1 = 0.2072	1.251
303.15 K, 101.33 kPa, x1 = 0.307	1.102
303.15 K, 101.33 kPa, x1 = 0.3926	1.007
303.15 K, 101.33 kPa, x1 = 0.5027	0.92
303.15 K, 101.33 kPa, x1 = 0.6105	0.864
303.15 K, 101.33 kPa, x1 = 0.6982	0.838
303.15 K, 101.33 kPa, x1 = 0.7882	0.823
303.15 K, 101.33 kPa, x1 = 0.8976	0.814

CCCCCCCCCCCCCC + COC(=O)c1ccccc1
101 kPa
Conditions	viscosity [mPa·s]
298.15 K, x1 = 0.0359	1.787
298.15 K, x1 = 0.0603	1.763
298.15 K, x1 = 0.0869	1.742
298.15 K, x1 = 0.114	1.723
298.15 K, x1 = 0.1429	1.706
298.15 K, x1 = 0.1751	1.695
298.15 K, x1 = 0.2075	1.686
298.15 K, x1 = 0.2786	1.675
298.15 K, x1 = 0.3166	1.672
298.15 K, x1 = 0.3592	1.673
298.15 K, x1 = 0.4082	1.68
298.15 K, x1 = 0.4539	1.688
298.15 K, x1 = 0.5114	1.7
298.15 K, x1 = 0.5687	1.718
298.15 K, x1 = 0.6228	1.743
298.15 K, x1 = 0.6938	1.782
298.15 K, x1 = 0.7735	1.842
298.15 K, x1 = 0.8501	1.905
308.15 K, x1 = 0.0334	1.486
308.15 K, x1 = 0.0663	1.471
308.15 K, x1 = 0.0869	1.464
308.15 K, x1 = 0.1156	1.452
308.15 K, x1 = 0.1423	1.444
308.15 K, x1 = 0.1737	1.436
308.15 K, x1 = 0.2082	1.428
308.15 K, x1 = 0.2405	1.422
308.15 K, x1 = 0.2806	1.418
308.15 K, x1 = 0.3218	1.415
308.15 K, x1 = 0.3558	1.415
308.15 K, x1 = 0.4082	1.42
308.15 K, x1 = 0.4482	1.426
308.15 K, x1 = 0.5073	1.438
308.15 K, x1 = 0.5627	1.455
308.15 K, x1 = 0.62	1.478
308.15 K, x1 = 0.6846	1.508
308.15 K, x1 = 0.7661	1.553
308.15 K, x1 = 0.8624	1.613
318.15 K, x1 = 0.0194	1.263
318.15 K, x1 = 0.0462	1.25
318.15 K, x1 = 0.071	1.242
318.15 K, x1 = 0.1011	1.231
318.15 K, x1 = 0.1287	1.223
318.15 K, x1 = 0.1619	1.213
318.15 K, x1 = 0.193	1.205
318.15 K, x1 = 0.2311	1.198
318.15 K, x1 = 0.267	1.193
318.15 K, x1 = 0.3111	1.189
318.15 K, x1 = 0.3471	1.186
318.15 K, x1 = 0.3979	1.187
318.15 K, x1 = 0.4448	1.189
318.15 K, x1 = 0.5017	1.196
318.15 K, x1 = 0.5526	1.206
318.15 K, x1 = 0.6171	1.222
318.15 K, x1 = 0.6828	1.244
318.15 K, x1 = 0.7602	1.276
318.15 K, x1 = 0.8353	1.314

C=CC(C)(O)CCC=C(C)C (stereo not given) + COC(C)(C)C
298.15 K, 101.33 kPa
Conditions	viscosity [mPa·s]
x2 = 0.0756	3.692
x2 = 0.1208	3.314
x2 = 0.1819	2.856
x2 = 0.3063	2.093
x2 = 0.3763	1.761
x2 = 0.5129	1.25
x2 = 0.5989	0.9982
x2 = 0.7222	0.7171
x2 = 0.8148	0.5569
x2 = 0.9106	0.4273
x2 = 0.9692	0.3605
